Experimental data from patent US12215109B2, “Crystal of pyrazolo[3,4-d]pyrimidine” (TAIHO PHARMACEUTICAL CO., LTD., priority 2018, dated 2025).

Tests used:
Assay type in all cases: physicochemical
[1] = Dynamic moisture absorption/desorption test; details: 25° C., humidity 5% RH to 95% RH and back to 5% RH
Procedure: In the test, VTI-SA+(TA Instruments) was used. About 10 mg of crystal I was weighed, and put into a pan. The temperature was elevated at a rate of 1 degree per minute to 60° C. while observing the weight variation per 5 minutes of 0.0100% or less. When the weight varied, this temperature was maintained for a maximum of 5 hours, followed by starting the next step. Thereafter, the temperature was cooled to 25° C., and the humidity was increased from 5% RH to 95% RH, and then decreased to 5% RH. Here, the humidity was increased in increments of 5% RH while observing the weight variation per 5 minutes of 0.00100% or less. When the weight varied, this humidity was maintained for a maximum of 2 hours, followed by starting the next step.

[2] = Solid stability test (storage stability; XRPD, HPLC related substances, appearance); details: for Related substances: HPLC
Procedure: The storage stability of Crystal I obtained in Example above was examined under the following conditions. • Storage conditions: 40° C./[…] (open system and closed system), 60° C. (closed system), light shielding • Measurement point: 1 month • Storage amount: about 50 mg • Storage container: Brown glass bottle
X-ray powder diffraction measurement of the sample after storage was performed by the above-described method. For a change in mass of related substances (amount of detected substances other than Compound (I)), about 1 mg of the sample was weighed, and dissolved in about 5 mL of a water/acetonitrile mixed liquid (1:1), and 5 μL of the liquid was accurately measured and taken, and analyzed by HPLC in accordance with the following method. • Column: InertSustain C18 HP, 4.6×150 mm, 3 μm • Column temperature: 40° C. • Column flow rate: 0.8 mL/min • Mobile phase: A: 10 mM phosphate buffer (pH 6.8)/acetonitrile (17:3) and B: acetonitrile/methanol (17:3) • Detection UV: 220 nm • Gradient: […]

[3] = Thermal stability test (X-ray powder diffraction under heating); details: XRPD at 25° C., 50° C., elevated to 200° C., then lowered to 25° C.
Procedure: A thermal stability test was conducted on Crystal I and Crystal III obtained in Example and Comparative Example described above. Crystal II was not reproduced, and it was not possible to conduct a thermal stability test.
X-ray powder diffraction measurement was performed at 25° C., and the temperature was elevated to 50° C. over 30 minutes, followed by performing X-ray powder diffraction measurement. The temperature was further elevated to 200° C. at 10° C./10 min, followed by performing X-ray powder diffraction measurement, then the temperature was lowered to 25° C. over 30 minutes, followed by performing X-ray powder diffraction measurement.

[4] = 40° C./75% RH (closed system), 1 month
[5] = 40° C./75% RH (open system), 1 month
[6] = 60° C. (closed system), 1 month
[7] = Light shielding (1,200,000 lx · hr)

hygroscopicity (moisture absorption/desorption isothermal line) [1] | Appearance [2, 4] | Related substances [2, 4] | Appearance [2, 5] | Related substances [2, 5] | Appearance [2, 6] | Related substances [2, 6] | Appearance [2, 7] | Related substances [2, 7] | change in crystal form under heating [3] | Compound | change in X-ray powder diffraction pattern after storage ([2]; storage 1 month, 40° C./75° RH (open and closed system), 60° C. (closed system), light shielding)
non-hygroscopic | No change | <0.1% | No change | <0.1% | No change | <0.1% | No change | <0.1% | no change in crystal form | C=CC(=O)N1CCC[C@@H](n2nc(C(=O)Nc3ccc(CC(=O)N(C)C)c(C)c3C)c3c(N)ncnc32)C1 [Crystal I, (R)-1-(1-acryloylpiperidin-3-yl)-4-amino-N-(4-(2-(dimethylamino)-2-oxoethyl)-2,3-dimethylphenyl)-1H-pyrazolo[3,4-d]pyrimidine-3-carboxamide] | no change in X-ray powder diffraction pattern
 |  |  |  |  |  |  |  |  | changed by heating | C=CC(=O)N1CCC[C@@H](n2nc(C(=O)Nc3ccc(CC(=O)N(C)C)c(C)c3C)c3c(N)ncnc32)C1 [Crystal III, (R)-1-(1-acryloylpiperidin-3-yl)-4-amino-N-(4-(2-(dimethylamino)-2-oxoethyl)-2,3-dimethylphenyl)-1H-pyrazolo[3,4-d]pyrimidine-3-carboxamide] | 
